# Data published in patent US20150072995A1, “TREATMENT OF MALE SEXUAL DYSFUNCTION” (Ixchelsis Limited, priority 2002, published 2015).
# Read-outs that look alike come from different tables or passages of the source.
# Assays:
# [1] = tested on: human volunteers; conditions: cited from earlier work
# [2] = tested on: male animals; conditions: cited from earlier work
# [3] = tested on: rats, rabbits and monkeys; conditions: cited from earlier work
# [4] = tested on: rats; conditions: cited from earlier work
# [5] = Free plasma concentration in rats; type: in vivo, rat; conditions: for concentration at 30 minutes: rat, plasma, preliminary pharmacokinetic studies
# [6] = tested on: anaesthetised rats; test: Penile erection and p-chloroamphetamine (PCA)-induced ejaculation test in anaesthetised rats; type: in vivo, rat
# [7] = target: T1, oxytocin receptor (Homo sapiens, UniProt P30559); test: biochemical
# T1 sequence (P30559 1-389): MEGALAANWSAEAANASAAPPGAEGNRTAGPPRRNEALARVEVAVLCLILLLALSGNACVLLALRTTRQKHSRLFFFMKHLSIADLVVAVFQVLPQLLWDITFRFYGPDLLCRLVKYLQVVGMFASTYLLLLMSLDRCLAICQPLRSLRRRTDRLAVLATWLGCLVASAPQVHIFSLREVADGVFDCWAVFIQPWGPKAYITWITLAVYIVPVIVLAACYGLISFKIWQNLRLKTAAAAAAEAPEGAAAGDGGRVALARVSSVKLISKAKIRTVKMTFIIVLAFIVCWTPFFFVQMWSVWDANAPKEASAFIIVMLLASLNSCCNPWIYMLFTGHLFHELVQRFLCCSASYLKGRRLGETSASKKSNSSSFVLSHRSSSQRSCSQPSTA
# Method: • a) HTA stock compounds at 4 mM in 100% DMSO • b) Dilute compounds to 200 μM in dH2O. • c) Further dilute compounds to 100 μM in 100 mM Tris-HCl, pH 7.8, 20 mM MgCl2. […]
# • Cell pellets are retrieved from the freezer, thawed on ice and resuspended in 3 ml of membrane prep buffer per ml packed cell volume. • The suspension is then homogenised using a mechanical homogeniser for several bursts of 5 secs on ice before centrifuging at 25,000×g for 30 mins. • After resuspending the pellet in 1 ml of freezing buffer per 1 ml of the original packed cell volume the suspension is briefly homogenised to remove small lumps. Protein concentrations are then measured and the membrane suspension is finally frozen in aliquots at a minimum of 5 mg/ml at −80° C.
# • Membranes are thawed on ice before diluting to 1 mg/ml in assay buffer. […] Following a 4 hour incubation at room temperature, the plates are counted using the TopCount NXT for 30 s/well.
# For the test compounds, the amount of ligand bound to the receptor is expressed as follows: […]
# [8] = CNS penetration; conditions: in vivo
# [9] = tested on: sexually-experienced rats; test: Male sexual behaviour model (copulatory behaviour with receptive female); type: in vivo, rat
# Method: For all the sexual behaviour tests, the male rats were placed in an observation arena (50-60 cm diameter), starting 5 hours into the dark cycle and observed under red illumination. Three to four minutes after placing the male in the arena, a receptive female (ovariectomised, oestradiol benzoate/progesterone injection 48 hour before behavioural study) was introduced into the arena and the following parameters noted: • i) ejaculatory latency (EJL; time taken from addition of receptive female into the arena to ejaculation); • ii) copulatory efficiency (CE; ejaculatory latency/the number of intromissions to ejaculation, i.e. the number of seconds between intromissions); • iii) intromission frequency (IF; the number of intromissions to ejaculation); • iv) mount frequency (MF; the number of mounts to ejaculation); • v) post ejaculatory interval (PEI; the time taken from ejaculation to the commencement of copulatory behaviour).
# [10] = target: T2, Human cloned vasopressin V1a receptor in CHO cells (Homo sapiens, UniProt P37288); test: Vasopressin V1a receptor binding assay (3H-AVP, filtration); conditions: printed as [6.3 nM OT: 148 nM V1a]; read-out: V1a (vasopressin V1a receptor affinity)
# T2 construct: expressed in transfected cells; host or cells: CHO cells (membrane preparation)
# Method: B. Vasopressin VIA Receptor Binding Assay
# iii) Membrane Preparation • Frozen cell pellets are retrieved from the freezer and thawed gently on ice. • 3 ml of membrane prep buffer per ml of original packed cell volume is • added and the suspension homogenised with a polytron for several bursts • of 5 seconds on ice until well dispersed before centrifuging at 1000 rpm for 10 mins • The supernatant is removed and stored on ice. A further 3 ml of membrane prep buffer per ml of original packed cell volume is added to the pellet, homogenised on ice and then centrifuged at 1000 rpm for 10 mins • The supernatant is removed, added to the previously removed volume of supernatant and then centrifuged at 25,000×g and 4° C. for 30 mins • The 25,000×g pellet is re-suspended by homogenisation in 1 ml of freezing buffer per ml of original packed cell volume and the protein concentration determined […]
# Specific binding is calculated as follows: […]
# [11] = tested on: anaesthetised rats; test: Splanchnic nerve-stimulated seminal vesicle pressure in anaesthetised rats; type: in vivo, rat
# From the text: Seminal vesicle contraction is essential for emission and the seminal fluid delivered into the prostatic urethra is thought to trigger ejaculation. Oxytocin has direct contractile effects on mammalian seminal vesicles and may additionally have a neuromodulator role influencing sympathetic innervation during ejaculation. In this study seminal vesicle contraction was reduced by 41% after a 1 mgkg^−1 bolus injection (see FIG. 2 below).
# [12] = tested on: experienced male rats; conditions: ICV injection, Argiolas et al 1988; cited from earlier work
# [13] = tested on: rat; conditions: 100 ng/rat icv; cited from earlier work
# [14] = tested on: rat; conditions: cited from earlier work
# [15] = infusion into the 3rd ventricle
# T2 sequence (P37288 whole entry): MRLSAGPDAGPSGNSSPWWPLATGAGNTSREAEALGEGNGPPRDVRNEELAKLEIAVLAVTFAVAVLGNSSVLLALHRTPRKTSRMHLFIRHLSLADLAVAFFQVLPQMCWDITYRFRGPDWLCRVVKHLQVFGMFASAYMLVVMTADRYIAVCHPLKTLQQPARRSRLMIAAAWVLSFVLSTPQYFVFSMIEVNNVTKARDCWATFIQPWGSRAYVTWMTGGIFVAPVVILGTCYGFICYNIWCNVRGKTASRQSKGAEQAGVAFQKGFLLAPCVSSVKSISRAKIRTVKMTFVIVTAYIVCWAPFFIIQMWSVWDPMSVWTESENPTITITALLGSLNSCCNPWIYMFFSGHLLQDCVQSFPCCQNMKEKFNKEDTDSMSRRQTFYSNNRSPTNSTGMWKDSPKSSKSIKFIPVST
compound,measurement,setting,value
C=CCN1CC[C@]23c4c5ccc(O)c4O[C@H]2C(=O)CC[C@@]3(O)[C@H]1C5 [naloxone],effect on ejaculation,[1],no effect
same,serum oxytocin pulse typically observed at ejaculation,[1],eliminated
CC[C@H](C)[C@@H]1NC(=O)[C@H](Cc2ccc(O)cc2)NC(=O)[C@@H](N)CSSC[C@@H](C(=O)N2CCC[C@H]2C(=O)N[C@@H](CC(C)C)C(=O)NCC(N)=O)NC(=O)[C@H](CC(N)=O)NC(=O)[C@H](CCC(N)=O)NC1=O [oxytocin],ejaculation latency and post-ejaculation interval,[2]; injected either centrally or peripherally,shortens
same,penile erections,[2]; injected into specific areas of the brain (periventricular nucleus of the hypothalamus),facilitates
same,latency to achieve ejaculation,[3]; central administration,reduce
same,post-ejaculatory interval,[3]; central administration,shorten
same,induction of penile erection,"[3]; rats, rabbits and monkeys",one of the most potent agents to induce penile erection
same,ejaculatory latency,[4]; [15],no effect
same,latencies to the first mount and intromission,[4]; [15],increased
same,post ejaculatory refractory periods,[4]; [15],lengthened
same,ejaculatory latency,[4]; intravenous infusion,no effect
same,number of intromissions made before ejaculation,[4]; intravenous infusion,dose dependently reduced
"Cc1ccccc1N1CCN(S(=O)(=O)CC23CCC(C[C@@H]2NC(=O)[C@@H](N)CCS(C)(=O)=O)C3(C)C)CC1 (stereo partly drawn) [L-368,899]",free plasma concentration,"[5]; after a 1.0 mgkg^−1 iv injection, based on literature PK and protein plasma binding",approximately 60 nM
same,free plasma concentration at which ejaculation was delayed 140%,"[5]; anaesthetised rats, sc",5.4 ± 1.5 nM
same,concentration at 30 minutes,[5]; 30 minutes after 1 mgkg^−1 sc,4.5 nM
same,concentration at 30 minutes,[5]; 30 minutes after 10 mgkg^−1 sc,40 nM
same,PCA-induced erections resulting in penile cups,[6]; 0.1 mg/kg,98%
same,PCA-induced erections resulting in penile flares,[6]; 0.1 mg/kg,88%
same,PCA-induced erections resulting in penile cups,[6]; 1.0 mg/kg sc,95%
same,PCA-induced erections resulting in penile flares,[6]; 1.0 mg/kg sc,61%
same,Ejaculation delayed (near maximal effect),"[6]; PCA-induced ejaculation, at free plasma concentrations 5.4±1.5 nM",140%
same,delay of PCA-induced ejaculation,"[6]; anaesthetised rats, 0.1-10 mgkg^−1 sc",significantly delayed
same,Ki,[7],6.3 nM
same,CNS penetration,[8],very poor
same,effect on copulatory efficiency,[9]; 50 ng/rat icv,no significant effects
same,effect on copulatory efficiency,"[9]; any of the doses tested, 0.05-10 mgkg^−1 sc",no effects
same,effect on copulatory behaviour,[9]; doses up to 10 mgkg^−1 sc,no effect
same,Ki,[10],148 nM
same,splanchnic nerve-stimulated increases in seminal vesicle pressure,[11]; 1-3 mgkg^−1 iv,significantly reduced
same,reduction of seminal vesicle contraction,[11]; after a 1 mgkg^−1 bolus injection,41%
d(CH2)5Tyr(Me)-Orn^8-vasotocin,ejaculation,[12],abolishment
same,penile erection,[12],prevent penile erection
same,sexual performance,[12],impair
same,drug-induced erections,[13],abolished
same,copulatory behaviour,[9]; 50 ng/rat icv,abolished
same,effect on ejaculatory latency,"[9]; doses up to 25 ng/rat icv, previous studies",no effect
same,number of non-contact erections,[14]; 100 ng/rat icv,reduces
same,non-contact penile erections,"[14]; Melis et al 1999, dose not given",significantly reduces
